What all share (assay type): biochemical
One assay deals with T1, IR-HIS (Homo sapiens, UniProt P06213).
T1 construct: His
Briefly: Kinase screen: IR-HIS assay. The following applies: 10 micromolar compound; for remaining activity at 10 µM: read-out: mean activity remaining (as a percentage of the original activity), IR-HIS. On the procedure: (§1) Generally, the same procedure was used for all assays. Since the total assay volume was 25.5 microliters, 0.5 microliters of inhibitors at 51× assay concentration were added to the plates before any other addition.
(§2) The basic procedure was to add 0.5 microliters inhibitor/control in DMSO to plate. Fifteen microliters of enzyme/substrate/buffer mix were added and incubated for 5 min. Ten microliters MgATP at the relevant concentration were added and incubated for 30 min. The assay was stopped by adding 5 microliters of 3% orthophosphoric acid. The assay was transferred to a p81 filter plate and read in a scintillation counter of 30 sec/well. Note that this assay procedure was not followed for MKK1, which instead involved a two-step assay, and PKC alpha, which required the addition of lipid vesicles.
IR-HIS assay: IR-HIS (5-20 mU diluted in 50 mM Tris pH 7.5, 0.1 mM EGTA, 1 mg/ml BSA) was assayed against a substrate peptide ([…]) (SEQ ID NO: 36) in a final volume of 25.5 μl containing 50 mM Tris pH 7.5, 300 μM substrate peptide, 10 mM magnesium acetate and 0.02 mM [33P-g-ATP] (50-1000 cpm/pmole) and incubated for 30 min at room temperature. Assays were stopped by addition of 5 μl of 0.5 M (3%) orthophosphoric acid and then harvested onto P81 Unifilter plates with a wash buffer of 50 mM orthophosphoric acid.

The target of the next assay is PIM1 (Homo sapiens, UniProt P11309). Briefly: Kinase screen: PIM1 assay. The procedure:
as §1, §2
PIM1 assay: PIM1 (5-20 mU diluted in 50 mM Tris pH 7.5, 0.1 mM EGTA, 0.1% b-mercaptoethanol, 1 mg/ml BSA) was assayed against a substrate peptide ([…]) (SEQ ID NO: 23) in a final volume of 25.5 μl containing 50 mM Tris pH 7.5, 0.05% b-mercaptoethanol, 300 μM substrate peptide, 10 mM magnesium acetate and 0.02 mM [33P-g-ATP] (50-1000 cpm/pmole) and incubated for 30 min at room temperature. Assays were stopped by addition of 5 μl of 0.5 M (3%) orthophosphoric acid and then harvested onto P81 Unifilter plates with a wash buffer of 50 mM orthophosphoric acid.

In another assay the target is CK1 (Homo sapiens, UniProt P48730). As to the kind of experiment: Kinase screen: CK1 assay. On the procedure:
Generally, the same procedure was used for all assays. […] The basic procedure was to add 0.5 microliters inhibitor/control in DMSO to plate. Fifteen microliters of enzyme/substrate/buffer mix were added and incubated for 5 min. Ten microliters MgATP at the relevant concentration were added and incubated for 30 min. […] The assay was transferred to a p81 filter plate and read in a scintillation counter of 30 sec/well. Note that this assay procedure was not followed for MKK1, which instead involved a two-step assay, and PKC alpha, which required the addition of lipid vesicles. CK1 assay: […]

The target in a further assay is SRPK1 (Homo sapiens, UniProt Q96SB4). As to the kind of experiment: Kinase screen: SRPK1 assay. The procedure: as §1, §2
Sequence of SRPK1 (Q96SB4 whole entry, species assumed): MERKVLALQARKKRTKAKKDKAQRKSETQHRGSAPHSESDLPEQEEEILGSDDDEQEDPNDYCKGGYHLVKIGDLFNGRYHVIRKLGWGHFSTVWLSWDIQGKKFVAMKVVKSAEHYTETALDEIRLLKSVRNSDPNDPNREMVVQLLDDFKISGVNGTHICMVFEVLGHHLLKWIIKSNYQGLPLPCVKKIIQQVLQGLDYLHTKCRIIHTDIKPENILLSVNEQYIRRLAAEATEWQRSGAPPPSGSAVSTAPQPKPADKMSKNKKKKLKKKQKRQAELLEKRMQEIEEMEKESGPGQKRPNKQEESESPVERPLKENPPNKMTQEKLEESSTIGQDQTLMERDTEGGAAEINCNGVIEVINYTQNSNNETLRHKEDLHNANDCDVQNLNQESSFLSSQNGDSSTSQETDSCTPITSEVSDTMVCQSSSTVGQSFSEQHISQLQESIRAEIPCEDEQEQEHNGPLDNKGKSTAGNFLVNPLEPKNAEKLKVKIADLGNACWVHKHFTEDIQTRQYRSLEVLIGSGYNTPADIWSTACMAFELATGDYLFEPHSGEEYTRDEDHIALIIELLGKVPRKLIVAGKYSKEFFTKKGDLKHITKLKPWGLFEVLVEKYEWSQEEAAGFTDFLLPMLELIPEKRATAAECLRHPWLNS
SRPK1 assay: 5-20 mU of SRPK1 (diluted in 50 mM Tris (pH 7.5), 0.1 mM EGTA, 1 mg/ml BSA, 0.1%, b-Mercaptoethanol) was assayed against substrate peptide ([…]) (SEQ ID NO: 25) in a final volume of 25.5 μl containing 50 mM Tris (pH 7.5), 0.1 mM EGTA, 0.1%, b-Mercaptoethanol, 300 μM substrate peptide, 10 mM magnesium acetate and 0.05 mM [33P-g-ATP] (500-1000 cpm/pmole) and incubated for 30 mins at room temperature. Assays were stopped by addition of 5 μl of 0.5M (3%) orthophosphoric acid. Assays were harvested onto P81 Unifilter plates using a wash buffer of 50 mM orthophosphoric acid.

Another assay has as its target MAPKAP-K2 (Homo sapiens, UniProt P49137). Briefly: Kinase screen: MAPKAP-K2 assay. On the procedure: as §1, §2
MAPKAP-K2 assay: MAPKAP-K2 (5-20 mU diluted in 20 mM MOPS pH 7.5, 1 mM EDTA, 0.01% Brij35, 5% glycerol, 0.1% b-mercaptoethanol, 1 mg/ml BSA) was assayed against […] (SEQ ID NO: 3) in a final volume of […] containing 50 mM Na-b-glycerophosphate pH 7.5, 0.5 mM EDTA, 30 μM substrate peptide, 10 mM magnesium acetate and 0.02 mM [33P-g-ATP] (50-1000 cpm/pmole) and incubated for 30 min at room temperature. Assays were stopped by addition of 5 μl of 0.5 M (3%) orthophosphoric acid and then harvested onto P81 Unifilter plates with a wash buffer of 50 mM orthophosphoric acid.

In a further assay the target is Src (Homo sapiens, UniProt P12931). Briefly: Kinase screen: Src assay. The procedure: as §1, §2
Sequence of Src (P12931 whole entry, species assumed): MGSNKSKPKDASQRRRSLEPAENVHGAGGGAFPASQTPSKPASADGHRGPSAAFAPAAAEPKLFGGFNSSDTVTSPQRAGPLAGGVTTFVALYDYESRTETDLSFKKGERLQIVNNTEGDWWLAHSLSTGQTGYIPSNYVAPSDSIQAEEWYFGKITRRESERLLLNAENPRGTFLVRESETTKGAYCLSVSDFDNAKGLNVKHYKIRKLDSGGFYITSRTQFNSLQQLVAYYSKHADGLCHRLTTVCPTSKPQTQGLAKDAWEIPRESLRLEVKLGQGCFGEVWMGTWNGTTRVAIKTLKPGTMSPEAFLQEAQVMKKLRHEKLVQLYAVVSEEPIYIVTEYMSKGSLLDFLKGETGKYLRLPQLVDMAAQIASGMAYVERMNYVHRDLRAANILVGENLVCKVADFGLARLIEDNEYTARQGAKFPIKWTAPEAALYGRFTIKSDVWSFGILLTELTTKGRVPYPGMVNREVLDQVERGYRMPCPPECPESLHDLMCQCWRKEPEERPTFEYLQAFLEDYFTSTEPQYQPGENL
(50-1000 cpm/pmole) and incubated for 30 min at room temperature. Assays were stopped by addition of 5 μl of 0.5 M (3%) orthophosphoric acid and then harvested onto P81 Unifilter plates with a wash buffer of 50 mM orthophosphoric acid.

Where [1] appears, read: 10 micromolar compound, read-out: mean activity remaining (as a percentage of the original activity), PIM1.
The mark [2] stands for this setting: 0.5 h, 10 micromolar compound, read-out: mean activity remaining (as a percentage of the original activity), CK 1.
Setting [3] is: 10 micromolar compound, read-out: mean activity remaining (as a percentage of the original activity), SRPK1.
The mark [4] stands for this setting: 10 micromolar compound, read-out: mean activity remaining (as a percentage of the original activity), MAPKAP-K2.
[5] abbreviates: 10 micromolar compound, read-out: mean activity remaining (as a percentage of the original activity), Src.

Here are results for 5 compounds from patent US8067424B2, “Selective inhibitors for cyclin-dependent kinases” (Emory University, priority 2007, dated 2011).

Where two headings read alike, the source gives them in different places.

In general, remaining activity refers to the signal under treatment as a percentage of the control signal.

Sequence of PIM1 (P11309 whole entry, species assumed): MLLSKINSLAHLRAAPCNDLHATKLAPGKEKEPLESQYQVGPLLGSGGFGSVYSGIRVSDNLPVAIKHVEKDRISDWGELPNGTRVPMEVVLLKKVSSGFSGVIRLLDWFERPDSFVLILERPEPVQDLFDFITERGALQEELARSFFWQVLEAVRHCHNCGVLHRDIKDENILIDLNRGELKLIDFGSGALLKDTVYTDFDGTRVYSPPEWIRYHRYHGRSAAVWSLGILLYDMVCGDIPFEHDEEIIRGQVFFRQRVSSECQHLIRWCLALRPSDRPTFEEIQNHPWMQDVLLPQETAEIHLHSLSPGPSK
Sequence of CK1 (P48730 whole entry): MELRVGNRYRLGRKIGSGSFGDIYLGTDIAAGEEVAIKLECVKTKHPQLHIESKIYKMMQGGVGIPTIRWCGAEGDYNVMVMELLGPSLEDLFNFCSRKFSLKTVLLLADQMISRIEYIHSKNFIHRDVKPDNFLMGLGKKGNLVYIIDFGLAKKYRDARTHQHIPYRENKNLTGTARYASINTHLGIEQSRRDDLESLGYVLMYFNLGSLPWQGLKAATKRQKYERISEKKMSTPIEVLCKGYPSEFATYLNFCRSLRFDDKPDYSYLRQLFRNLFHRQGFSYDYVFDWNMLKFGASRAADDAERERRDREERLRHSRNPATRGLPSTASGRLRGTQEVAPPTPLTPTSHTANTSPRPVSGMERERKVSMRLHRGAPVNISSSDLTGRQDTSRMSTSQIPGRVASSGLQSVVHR
T1 sequence (P06213 28-1382): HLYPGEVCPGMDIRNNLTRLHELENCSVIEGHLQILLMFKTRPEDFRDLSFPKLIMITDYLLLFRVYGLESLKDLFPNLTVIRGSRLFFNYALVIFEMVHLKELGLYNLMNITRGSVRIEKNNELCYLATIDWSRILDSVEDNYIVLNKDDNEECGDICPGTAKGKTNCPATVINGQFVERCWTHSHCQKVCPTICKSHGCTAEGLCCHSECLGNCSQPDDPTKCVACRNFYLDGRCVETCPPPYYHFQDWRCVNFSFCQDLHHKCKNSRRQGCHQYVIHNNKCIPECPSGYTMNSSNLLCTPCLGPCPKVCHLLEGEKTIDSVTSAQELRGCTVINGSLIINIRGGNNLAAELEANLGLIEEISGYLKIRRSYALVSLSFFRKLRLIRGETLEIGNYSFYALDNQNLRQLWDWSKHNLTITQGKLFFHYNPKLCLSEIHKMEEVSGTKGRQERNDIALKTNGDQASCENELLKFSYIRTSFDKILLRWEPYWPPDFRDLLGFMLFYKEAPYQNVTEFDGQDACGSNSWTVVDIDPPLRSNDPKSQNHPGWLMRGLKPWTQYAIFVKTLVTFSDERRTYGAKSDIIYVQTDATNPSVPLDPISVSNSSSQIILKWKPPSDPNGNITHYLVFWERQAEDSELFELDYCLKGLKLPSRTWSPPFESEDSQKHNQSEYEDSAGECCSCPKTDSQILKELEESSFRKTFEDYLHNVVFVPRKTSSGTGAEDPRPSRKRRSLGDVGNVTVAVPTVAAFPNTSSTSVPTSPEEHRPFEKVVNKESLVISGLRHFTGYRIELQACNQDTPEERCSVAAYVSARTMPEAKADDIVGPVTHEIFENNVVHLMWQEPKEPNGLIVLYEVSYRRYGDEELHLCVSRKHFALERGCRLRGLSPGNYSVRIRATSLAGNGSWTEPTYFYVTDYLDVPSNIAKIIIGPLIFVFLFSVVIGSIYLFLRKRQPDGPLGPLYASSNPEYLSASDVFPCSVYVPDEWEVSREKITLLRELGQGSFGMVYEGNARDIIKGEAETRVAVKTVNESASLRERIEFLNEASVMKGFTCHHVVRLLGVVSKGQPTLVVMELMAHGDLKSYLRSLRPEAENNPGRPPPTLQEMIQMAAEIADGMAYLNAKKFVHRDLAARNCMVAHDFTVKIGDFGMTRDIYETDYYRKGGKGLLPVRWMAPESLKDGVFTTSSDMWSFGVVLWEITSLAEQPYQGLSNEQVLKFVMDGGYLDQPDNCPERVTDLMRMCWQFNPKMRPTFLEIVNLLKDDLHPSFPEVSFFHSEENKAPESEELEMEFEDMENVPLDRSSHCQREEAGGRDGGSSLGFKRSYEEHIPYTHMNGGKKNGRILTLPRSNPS
Sequence of MAPKAP-K2 (P49137 whole entry, species assumed): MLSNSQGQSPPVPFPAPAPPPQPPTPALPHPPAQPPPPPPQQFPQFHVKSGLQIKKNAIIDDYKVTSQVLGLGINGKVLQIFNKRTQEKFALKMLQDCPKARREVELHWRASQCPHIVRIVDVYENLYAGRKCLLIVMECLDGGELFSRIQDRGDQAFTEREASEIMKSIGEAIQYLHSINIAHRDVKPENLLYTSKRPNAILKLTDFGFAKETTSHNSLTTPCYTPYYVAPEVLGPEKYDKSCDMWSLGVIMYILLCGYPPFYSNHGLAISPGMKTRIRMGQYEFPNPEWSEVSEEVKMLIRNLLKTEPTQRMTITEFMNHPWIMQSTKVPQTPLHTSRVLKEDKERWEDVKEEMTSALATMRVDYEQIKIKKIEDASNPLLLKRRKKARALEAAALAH

Turning to `CC[C@H](CO)Nc1cc(NCc2ccccc2)n2ncc(C(C)C)c2n1` [ICEC0067], the remaining activity at 10 µM at IR-HIS is 78%; on PIM1 (setting [1]), 107%; at CK1 (setting [2]) it was 16%; on SRPK1 (setting [3]), 50%; on MAPKAP-K2 (setting [4]) it was 110%; on Src (setting [5]), 90%.

For the compound `C=C[C@H](CO)Nc1cc(NCc2ccccc2)n2ncc(C(C)C)c2n1` [ICEC0065], the remaining activity at 10 µM is 71% at IR-HIS; 113% at PIM1 (setting [1]); 19% on CK1 (setting [2]); 84% on SRPK1 (setting [3]); 111% on MAPKAP-K2 (setting [4]); 112% on Src (setting [5]).

Turning to `CC(C)c1cnn2c(NCc3ccccc3)cc(N[C@@H](CO)[C@H](O)CO)nc12` [ICEC0318, (3S)-3-(7-(Benzylamino)-3-isopropylpyrazolo[1,5-a]pyrimidin-5-ylamino)butane-1,2,4-triol], the remaining activity at 10 µM was 70% on IR-HIS; 103% at PIM1 (setting [1]); 19% at CK1 (0.5 h, read-out: mean activity remaining (as a percentage of the original activity), CK 1); 62% at SRPK1 (setting [3]); 111% at MAPKAP-K2 (setting [4]); 95% on Src (setting [5]).

`CC(C)c1cnn2c(NCc3ccccc3F)cc(NCCCCCN)nc12` [ICEC-0232]: the “mean activity remaining (as a percentage of the original activity), IR-HIS” value at IR-HIS was 58%. In addition, the “mean activity remaining (as a percentage of the original activity), PIM1” value on PIM1 (10 micromolar compound) turned out to be 110%. For the same compound, the “mean activity remaining (as a percentage of the original activity), CK 1” value at CK1 (10 micromolar compound) is given as 9%. The “mean activity remaining (as a percentage of the original activity), SRPK1” value on SRPK1 (10 micromolar compound) is given as 38%. At MAPKAP-K2 (10 micromolar compound), the “mean activity remaining (as a percentage of the original activity), MAPKAP-K2” value is listed as 88%. The “mean activity remaining (as a percentage of the original activity), Src” value at Src (10 micromolar compound) came out at 96%.

As for `CC(C)c1cnn2c(NCc3ccccc3)cc(NCCCCCCCN)nc12` [BS-181], the remaining activity at 10 µM turned out to be 88% at PIM1 (PIM1, 10 μM, read-out: Mean Remaining Enzyme Activity (%)); 29% at CK1 (CK1, 10 μM, read-out: Mean Remaining Enzyme Activity (%)); 44% on SRPK1 (SRPK1, 10 μM, read-out: Mean Remaining Enzyme Activity (%)); 88% on MAPKAP-K2 (MAPKAP-K2, 10 μM, read-out: Mean Remaining Enzyme Activity (%)); 88% on Src (Src, 10 μM, read-out: Mean Remaining Enzyme Activity (%)).
